Measurements reported in paper PMC5957530 (FEBS letters, 2017).
Like-named read-outs stand apart in the source and are kept apart here.

T1: Escherichia coli CysE (Escherichia coli, UniProt P0A9D4)
T1 sequence (P0A9D4 1-273): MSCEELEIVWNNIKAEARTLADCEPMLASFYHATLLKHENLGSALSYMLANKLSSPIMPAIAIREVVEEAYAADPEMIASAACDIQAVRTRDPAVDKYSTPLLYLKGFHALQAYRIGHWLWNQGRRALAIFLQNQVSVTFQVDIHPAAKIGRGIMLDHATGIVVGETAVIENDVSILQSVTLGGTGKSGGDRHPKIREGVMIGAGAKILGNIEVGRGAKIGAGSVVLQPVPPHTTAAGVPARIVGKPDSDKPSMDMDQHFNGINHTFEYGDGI

T2: cysteine synthase complex (CSC; E. coli CysE in complex with E. coli CysK) (Escherichia coli, UniProt P0A9D4)
T2 sequence (P0A9D4 1-273): T1 sequence (P0A9D4 1-273)
T2 sequence (P0ABK5 1-323 partner): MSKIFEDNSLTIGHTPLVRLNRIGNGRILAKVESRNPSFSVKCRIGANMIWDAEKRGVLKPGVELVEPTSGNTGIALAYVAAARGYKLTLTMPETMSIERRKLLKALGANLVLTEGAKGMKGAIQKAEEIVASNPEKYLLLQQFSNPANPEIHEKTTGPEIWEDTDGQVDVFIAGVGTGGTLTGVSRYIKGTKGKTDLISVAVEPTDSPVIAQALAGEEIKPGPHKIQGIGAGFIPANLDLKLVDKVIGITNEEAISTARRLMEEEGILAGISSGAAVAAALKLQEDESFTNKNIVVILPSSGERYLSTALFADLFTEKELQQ

B1: O-acetylserine sulfhydrylase-A (CysK) from E. coli (enzyme, UniProt P0ABK5 1-323, looked up)
chain: T2 sequence (P0ABK5 1-323 partner)
modifications: bound pyridoxal 5'-phosphate (PLP) cofactor
B2: Escherichia coli CysE (Escherichia coli K-12) (protein)
chain: T1 sequence (P0A9D4 1-273)
B3: cysteine synthase complex (CSC; E. coli CysE in complex with E. coli CysK) (Escherichia coli K-12) (protein)
chain: T1 sequence (P0A9D4 1-273)
B4: serine acetyltransferase (CysE) from E. coli (enzyme, UniProt P0A9D4 1-273, looked up)
chain: T1 sequence (P0A9D4 1-273)

Columns and labels:
Escherichia coli CysE = molecular target: T1, Escherichia coli CysE; test: L-Ser acetylation steady-state kinetics of isolated CysE; settings: for apparent kcat: per CysE hexamer
[1] = molecular target: T2, cysteine synthase complex (CSC; E. coli CysE in complex with E. coli CysK); test: L-Ser acetylation steady-state kinetics of CysE in complex with CysK; settings: for apparent kcat: per CysE hexamer
plant CysE = plant CysE in the CSC vs free; cited from earlier work
CysK = CysK (Escherichia coli, UniProt P0ABK5); test: Fluorescence titration of CysK; assay type: binding; settings: in the presence of 10 μM L-Cys
SEC = molecular target: the molecule itself; test: SEC
[2] = substrate: N[C@@H](CO)C(=O)O; test: purified protein, by the assay type; settings: 20.0 °C
[3] = molecular target: B1; test: inhibition of enzyme activity
[4] = molecular target: B1; test: other fluorescence titration

Molecule `CC(=O)SCCNC(=O)CCNC(=O)[C@H](O)C(C)(C)COP(=O)(O)OP(=O)(O)OC[C@H]1O[C@@H](n2cnc3c(N)ncnc32)[C@H](O)[C@@H]1OP(=O)(O)O` [Acetyl-CoA, acetyl-CoA] has an apparent kcat (Escherichia coli CysE; -CysK, acetyl-CoA varied, L-Ser 20 mM) of 306 ± 35 s⁻¹, a Km (Escherichia coli CysE; read-out: KM,acCoA, -CysK, global fit Eqn 2) of 300 ± 100 µM and a Kd (Escherichia coli CysE; read-out: Kd,acCoa, -CysK, dissociation from unligated enzyme, global fit Eqn 2) of 100 ± 100 µM. The Km (Escherichia coli CysE; read-out: apparent KM, -CysK, acetyl-CoA varied, L-Ser 20 mM, 20 °C) was 1400 ± 400 µM, the apparent kcat ([1]; +CysK fivefold molar excess, acetyl-CoA varied, L-Ser 20 mM) was 416 ± 38 s⁻¹ and the Km ([1]; read-out: KM,acCoA, +CysK fivefold molar excess, global fit Eqn 2) was 300 ± 100 µM. The Kd ([1]; read-out: Kd,acCoa, +CysK fivefold molar excess, global fit Eqn 2) was 100 ± 100 µM.

`N[C@@H](CS)C(=O)O` [L-Cys, L-cysteine] showed an IC50 (Escherichia coli CysE; IC50 for L-Cys, free CysE) of 0.18 µM, an IC50 (Escherichia coli CysE; L-Cys concentration around the IC50, 0.1 mM L-Ser (physiological), Fig. S5B) of roughly 0.07 µM and an IC50 (Escherichia coli CysE; L-Cys concentration around the IC50, 20 mM L-Ser (saturating), Fig. S5B) of roughly 0.5 µM. For the same molecule, the “fold increase of L-Cys Ki of plant CysE in the CSC” value (plant CysE) was “more than 35 fold”, the “increase in L-Cys IC50 of plant CysE in the CSC” value (plant CysE) was “fourfold” and the “fold increase in the dissociation constant of the CSC” value (CysK) was 10 fold. The IC50 [1] was 0.7 µM and the “increase of L-Cys IC50 in the CSC vs free CysE” value ([1]; presence of molar excess CysK) was “fourfold”.

Work on `N[C@@H](CO)C(=O)O` [L-Ser, L-serine] yielded a Kd (Escherichia coli CysE) of 500 ± 200 µM, an apparent kcat (Escherichia coli CysE; -CysK, L-Ser varied, acetyl-CoA […]) of 228 ± 60 s⁻¹ and a Kd [1] of 600 ± 200 µM. For the same molecule, the Ki [1] was 16000 ± 5000 µM, the apparent kcat ([1]; +CysK fivefold molar excess, L-Ser varied, acetyl-CoA […]) was 228 ± 34 s⁻¹ and the “increase in the L-Ser inhibition constant, CSC vs free CysE” value ([1]; CysE in complex with CysK) was “four fold”.

For B1, the “stoichiometry N” value (SEC) was 2.

B2 showed a Km ([2]; other: -CysK, L-Ser varied, acetyl-CoA […]) of 1700 ± 700 µM and a Km ([2]; other: -CysK, global fit, random-order mechanism (Eqn 2)) of 1300 ± 200 µM.

Molecule B3 has a Km ([2]; other: +CysK fivefold molar excess, L-Ser varied, acetyl-CoA […]) of 1100 ± 400 µM and a Km ([2]; other: +CysK fivefold molar excess, global fit Eqn 2) of 1200 ± 200 µM.

For B4, the “stoichiometry N” value (SEC) was 6, the Ki app [3] was 0.0087 ± 0.001 µM and the “stoichiometry N” value [4] was ~1.6 CysE:CysK.
